Laboratory results reported in patent publication US5580895A, “1,5-benzodiazepine derivatives” (Glaxo SpA, priority 1992, dated 1996).

Tests used:
CCK-A receptor [1] = target: T1, CCK-A receptor (Cavia porcellus, UniProt Q63931); assay: CCK-A antagonist activity, guinea pig isolated ileum longitudinal muscle myenteric plexus (inhibition of contractile activity of CCK-8); assay type: cell-based
T1 construct: guinea pig isolated ileum longitudinal muscle myenteric plexus preparation; from tissue; host or cells: guinea pig isolated ileum longitudinal muscle-myenteric plexus
T1 sequence (Q63931 1-430): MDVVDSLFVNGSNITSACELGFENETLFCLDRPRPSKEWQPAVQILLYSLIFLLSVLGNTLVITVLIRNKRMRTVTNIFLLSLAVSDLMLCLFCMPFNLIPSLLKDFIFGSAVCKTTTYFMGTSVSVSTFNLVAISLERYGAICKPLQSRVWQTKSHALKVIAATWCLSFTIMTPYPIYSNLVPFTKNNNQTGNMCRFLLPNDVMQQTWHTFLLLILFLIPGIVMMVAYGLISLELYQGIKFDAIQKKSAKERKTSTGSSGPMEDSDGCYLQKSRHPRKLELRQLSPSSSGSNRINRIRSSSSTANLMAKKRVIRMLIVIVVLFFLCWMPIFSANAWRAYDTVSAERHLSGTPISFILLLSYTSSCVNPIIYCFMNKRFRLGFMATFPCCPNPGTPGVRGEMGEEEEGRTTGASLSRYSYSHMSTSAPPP
Protocol: The preparation and use of guinea-pig isolated ileum longitudinal muscle-myenteric plexus has been described by K-H Buchheit et al in Nauyn-Schmeideberg's Arch. Pharmacol, (1985), 329, p36-41 and by V. L. Lucaites et al (1991) in J. Pharmacol. Exp. Ther., 256, 695-703.
The CCK-A antagonist and CCK-B antagonist activities of compounds of the invention were determined using the guinea pig isolated ileum longitudinal muscle myenteric plexus preparation. The compounds were tested using the procedure G Dal
Forno et al J. Pharmacol. Exp & Ther. 261-1056-1063 1992 and the pKb value for each compound was determined.

CCK-A receptor [2] = assay: CCK receptor binding, CCK-A (Pancreas Assay)
Protocol: (§1) The greater affinity of the compounds of the invention for the CCK-B receptor over the CCK-A receptor has also been established using the CCK receptor binding assays described by G. Dal Fornos et al., J. Pharmcol. Exp & Ther. 261, 1056-1063, 1992.
(§2) The binding affinity of the compounds of the invention for the CCK-A receptor (Pancreas Assay) and CCK-B receptor (guinea pig cortex assay) was determined using the procedure of G Dal Forno et al J. Pharmacol. Exp & Ther. 261-1056-1063. The pKi values determined with representative compounds of invention were as follows: […]

CCK-B receptor = target: T2, CCK-B receptor (Cavia porcellus, UniProt H0VZC5); assay: CCK receptor binding, CCK-B (guinea pig cortex assay)
T2 construct: CCK-B receptor (guinea pig cortex assay); from tissue; host or cells: guinea pig cortex
T2 sequence (H0VZC5 entry or part of it): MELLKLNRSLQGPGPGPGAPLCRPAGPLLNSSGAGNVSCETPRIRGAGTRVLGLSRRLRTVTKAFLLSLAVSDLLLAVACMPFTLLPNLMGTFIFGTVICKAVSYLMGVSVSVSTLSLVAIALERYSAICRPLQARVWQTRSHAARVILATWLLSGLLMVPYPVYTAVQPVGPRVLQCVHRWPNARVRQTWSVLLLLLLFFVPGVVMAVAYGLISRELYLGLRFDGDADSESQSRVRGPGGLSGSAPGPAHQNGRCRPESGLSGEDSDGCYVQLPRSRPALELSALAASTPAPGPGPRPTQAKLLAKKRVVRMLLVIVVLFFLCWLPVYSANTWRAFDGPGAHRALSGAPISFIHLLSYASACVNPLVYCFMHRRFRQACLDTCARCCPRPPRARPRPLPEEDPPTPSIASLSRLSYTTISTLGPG
Protocol: as §1, §2

mice and rats [3] = assay: Toxicity / untoward effects on oral administration to mice and rats; assay type: in vivo; details: orally to mice and rats at doses exhibiting anxiolytic activity
From the text: (§3) The compounds of the invention are essentially non-toxic and therapeutically useful doses.

mice and rats [4] = assay: Anxiolytic activity, oral, mice and rats; assay type: in vivo; details: orally to mice and rats
From the text: as §3

**Q.** `CC(C)CCN1C(=O)C(NC(=O)Nc2ccccc2)C(=O)N(c2ccccc2)c2ccccc21` (single isomer, unassigned; (+)) [Example 26, (+)-N-[2,4-Dioxo-5-phenyl-1-(3-methylbut-1-yl)-2,3,4,5-tetrahydro-1H-1,5-benzodiazepin-3-yl]-N'-phenylurea] was tested. Which Kb (CCK-A receptor [1]; read-out: pKb CCK-A (converted)) did it give?
**A.** ≥ 3160 nM

**Q.** `CC(C)CCN1C(=O)C(NC(=O)Nc2cccc(N(C)C)c2)C(=O)N(c2ccccc2F)c2ccccc21` (single isomer, unassigned; (+)) [Example 27, (+)-N-[2,4-Dioxo-5-(2-fluorophenyl)-1-(3-methylbut-1-yl)-2,3,4,5-tetrahydro-1H-1,5-benzodiazepin-3-yl]-N'-[3-(N,N-dimethylamino)phenyl]urea] was tested. Which “pKi CCK-A” value (CCK-A receptor [2]) did it give?
**A.** 6.83

**Q.** What about the Ki (CCK-B receptor) of the same molecule?
**A.** 0.288 nM

**Q.** `O=C(Nc1ccccc1)NC1C(=O)N(CC23CC4CC(CC(C4)C2)C3)c2ccccc2N(c2ccccc2)C1=O` (single isomer, unassigned; (+)) [Example 45, (+)-N-[1-(Adamantanmethyl)-2,4-dioxo-5-phenyl-2,3,4,5-tetrahydro-1H-1,5-benzodiazepin-3-yl]-N'-phenylurea] was tested. Which “pKi CCK-A” value (CCK-A receptor [2]) did it give?
**A.** 5.95

**Q.** What about the untoward effects (mice and rats [3]) of the same molecule?
**A.** no untoward effects were observed

**Q.** And the anxiolytic activity (mice and rats [4])?
**A.** exhibits anxiolytic activity

**Q.** For `CC(C)CCN1C(=O)C(NC(=O)Nc2cccc(N(C)C)c2)C(=O)N(c2ccccc2F)c2ccccc21` (centres unmarked) [Example 4, N-[2,4-dioxo-5-(2-fluorophenyl)-1-(3-methylbut-1-yl)-2,3,4,5-tetrahydro-1H-1,5-benzodiazepin-3-yl]-N'-(3-dimethylamino)phenylurea], which “pKi CCK-A” value (CCK-A receptor [2]) is on record?
**A.** 6.9

**Q.** `CC(C)(C)C(O)CN1C(=O)C(NC(=O)Nc2ccccc2)C(=O)N(c2ccccc2F)c2ccccc21` (centres unmarked) [Example 7A, N-[1-(3,3-Dimethyl-2-hydroxybut-1-yl)-2,4-dioxo-5-(2-fluorophenyl)-2,3,4,5-tetrahydro-1H-1,5-benzodiazepin-3-yl]-N'-phenylurea] was tested. Which “pKi CCK-A” value (CCK-A receptor [2]) did it give?
**A.** 6.33

**Q.** With `CC(C)CCN1C(=O)C(NC(=O)Nc2ccccc2)C(=O)N(c2ccccc2)c2cc(Cl)ccc21` (centres unmarked) [Example 9, N-[7-Chloro-2,4-dioxo-1-(3-methylbut-1-yl)-5-phenyl-2,3,4,5-tetrahydro-1H-1,5-benzodiazepin-3-yl]-N'-phenylurea] as the molecule, how does the “pKi CCK-A” value (CCK-A receptor [2]) read?
**A.** 6.02

**Q.** For `CC(C)CCN1C(=O)C(NC(=O)Nc2ccccc2)C(=O)N(c2ccccc2)c2cc(Cl)c(Cl)cc21` (centres unmarked) [Example 11, N-[7,8-dichloro-2,4-Dioxo-1-(3-methylbut-1-yl)-5-phenyl-2,3,4,5-tetrahydro-1H-1,5-benzodiazepin-3-yl]-N'-phenylurea], which “pKi CCK-A” value (CCK-A receptor [2]) is on record?
**A.** 5.80

**Q.** Which “pKi CCK-A” value (CCK-A receptor [2]) does the source give for `O=C(Nc1ccccc1)NC1C(=O)N(CC23CC4CC(CC(C4)C2)C3)c2ccccc2N(c2ccccc2)C1=O` (centres unmarked) [Example 14, N-[1-(1-Adamantyl)methyl-2,4-dioxo-5-phenyl-2,3,4,5-tetrahydro-1H-1,5-benzodiazepin-3-yl]-N'-phenylurea] here?
**A.** 6.15

**Q.** For `CC(C)(C)CCN1C(=O)C(NC(=O)Nc2ccccc2)C(=O)N(c2ccccc2)c2ccccc21` (centres unmarked) [Example 16, N-[1-(3,3-Dimethylbutyl)-2,4-dioxo-5-phenyl-2,3,4,5-tetrahydro-1H-1,5-benzodiazepin-3-yl]-N'-phenylurea], which “pKi CCK-A” value (CCK-A receptor [2]) is on record?
**A.** 6.95

**Q.** How did the “pKb CCK-A” value (CCK-A receptor [1]) turn out when `CC(C)CCN1C(=O)C(NC(=O)Nc2ccccc2)C(=O)N(c2ccccc2)c2ccccc21` (centres unmarked) [Example 25, N-[2,4-Dioxo-5-phenyl-1-(3-methylbut-1-yl)-2,3,4,5-tetrahydro-1H-1,5-benzodiazepin-3-yl]-N'-phenylurea] was run?
**A.** < 6.0

**Q.** Which “pKi CCK-A” value (CCK-A receptor [2]) does the source give for `CN(C)c1ccc(NC(=O)NC2C(=O)N(CCC3CCCC3)c3ccccc3N(c3ccccc3F)C2=O)cc1` (centres unmarked) [Example 30, N-[1-(2-cyclopentyl-ethyl)-2,4-dioxo-5-(2-fluorophenyl)-2,3,4,5-tetrahydro-1H-1,5-benzodiazepin-3-yl]-N'-[4-(dimethylamino)phenyl]urea] here?
**A.** 7.00

**Q.** With `O=C(Nc1ccccc1)NC1C(=O)N(CC2CC3C=CC2C3)c2ccccc2N(c2ccccc2)C1=O` (centres unmarked) [Example 31, N-[1-(Bicyclo[2.2.1]-5-heptene-2-ylmethyl)-2,4-dioxo-5-phenyl-2,3,4,5-tetrahydro-1H-1,5-benzodiazepin-3-yl]-N'-phenylurea] as the molecule, how does the “pKi CCK-A” value (CCK-A receptor [2]) read?
**A.** 6.76

**Q.** Which “pKi CCK-A” value (CCK-A receptor [2]) does the source give for `O=C(Nc1cccc([N+](=O)[O-])c1)NC1C(=O)N(CC23CC4CC(CC(C4)C2)C3)c2ccccc2N(c2ccccc2)C1=O` (centres unmarked) [Example 39, N-[1-(1-Adamantylmethyl)-2,4-dioxo-5-phenyl-2,3,4,5-tetrahydro-1H-1,5-benzodiazepin-3-yl]-N'-(3-nitrophenyl)urea] here?
**A.** 6.52

**Q.** Which “pKi CCK-A” value (CCK-A receptor [2]) does the source give for `CCOC(=O)c1cccc(NC(=O)NC2C(=O)N(CC34CC5CC(CC(C5)C3)C4)c3ccccc3N(c3ccccc3)C2=O)c1` (centres unmarked) [Example 41, N-[1-(1-Adamantylmethyl)-2,4-dioxo-5-phenyl-2,3,4,5-tetrahydro-1H-1,5-benzodiazepin-3-yl]-N'-(3-ethoxycarbonylphenyl)urea] here?
**A.** 6.09
